Biological target: Factor D (Homo sapiens, UniProt P00746)
Experiment: Factor D esterolytic assay
Assay type: biochemical
Details: substrate Z-Lys-SBzl 1.29 mM, 100 mM HEPES, 500 mM NaCl, pH 7.5, 10% DMSO, tested a minimum of three times
Procedure, shortened: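 Human Factor D esterolytic assay in 100 mM HEPES, 500 mM NaCl, pH 7.5, 10% DMSO, with 1.29 mM Z-Lys-SBzl substrate. Released thiol detected with DTNB at 405 nm over 600 s, minus 690 nm background. Substrate added immediately or after room-temperature preincubation with compound. IC50 from percent inhibition relative to enzyme alone; ≥3 tests.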

Chain of Factor D (P00746 26-253): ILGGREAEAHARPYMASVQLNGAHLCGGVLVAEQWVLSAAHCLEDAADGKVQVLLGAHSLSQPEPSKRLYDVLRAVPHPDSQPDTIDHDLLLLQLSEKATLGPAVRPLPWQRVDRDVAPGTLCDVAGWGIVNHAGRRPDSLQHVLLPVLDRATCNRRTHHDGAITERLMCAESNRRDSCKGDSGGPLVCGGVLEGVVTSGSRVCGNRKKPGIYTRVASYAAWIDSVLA

Compound | IC50 [µM]
Cn1cc(-c2c(COc3ccccc3CC(=O)O)cc(-c3cccc(CN)c3)c3occc23)cn1 [Compound 78e, 2-(2-((7-(3-(aminomethyl)phenyl)-4-(1-methyl-1H-pyrazol-4-yl)benzofuran-5-yl)methoxy)phenyl)acetic acid] | < 1
Cn1ccc(COc2c(COc3ccccc3CC(=O)O)cc(-c3cccc(CN)c3)c3occc23)n1 [Compound 79g, 2-(2-((7-(3-(aminomethyl)phenyl)-4-((1-methyl-1H-pyrazol-3-yl)methoxy)benzofuran-5-yl)methoxy)phenyl)acetic acid] | < 1
COCOc1c(COc2ccccc2CC(=O)O)cc(-c2cccc(CN)c2)c2occc12 [Compound 81h, 2-(2-((7-(3-(aminomethyl)phenyl)-4-(methoxymethoxy)benzofuran-5-yl)methoxy)phenyl)acetic acid] | < 1
NCc1ccc(-c2nc(C(=O)Nc3ccccc3CC(=O)O)c3cccn3n2)cc1 [Compound 82g, 2-(2-(2-(4-(aminomethyl)phenyl)pyrrolo[2,1-f][1,2,4]triazine-4-carboxamido)phenyl)acetic acid] | > 10
NCc1cccc(-c2cc(COc3ccccc3)cc3ccoc23)c1 [Compound 83b, (3-(5-(phenoxymethyl)benzofuran-7-yl)phenyl)methanamine] | > 10

Other lines, results leading:

IC50 [µM] | Compound
< 1 | CC(Oc1ccccc1CC(=O)O)c1cc(-c2cccc(CN)c2)c2occc2c1 (centres unmarked) [Compound 77e, 2-(2-(1-(7-(3-(aminomethyl)phenyl)benzofuran-5-yl)ethoxy)phenyl)acetic acid]
< 1 | NCc1cccc(-c2cc(COc3ccccc3CC(=O)O)c(OCc3ccncc3)c3ccoc23)c1 [Compound 80g, 2-(2-((7-(3-(aminomethyl)phenyl)-4-(pyridin-4-ylmethoxy)benzofuran-5-yl)methoxy)phenyl)acetic acid]
> 10 | NC(=O)c1cc(-c2cc(COc3ccccc3CC(=O)O)cc3ccoc23)cs1 [Compound 84c, 2-(2-((7-(5-carbamoylthiophen-3-yl)benzofuran-5-yl)methoxy)phenyl)acetic acid]

— patent publication US20250275991A1, “ORAL COMPLEMENT FACTOR D INHIBITORS” (BioCryst Pharmaceuticals, Inc, priority 2019, published 2025)
